Experimental data from patent US11713470B2, “Targeted gene therapies for pain and other neuro-related disorders” (University of Pittsburgh—Of the Commonwealth System of …, priority 2017, dated 2023).
Entries after “also recorded” stand apart in the source; their conditions may differ.

Assays:
[1] = target: T1, PSAM-GlyR in CCK^+ dorsal horn neurons (Homo sapiens, UniProt P23415+P36544, L141F); assay: Persistent pain models in mice expressing PSAM-GlyR in CCK^+ dorsal horn neurons; format: in vivo, mouse; conditions: 30 mg/kg i.p., PSAM-GlyR in CCK^+ neurons
T1 construct: plasmid from Addgene (Sternson); host or cells: mouse dorsal horn neurons transduced with Cre-dependent AAV2/8 (Tlx3^Cre, CCK^Cre or Calr^Cre mice)
Excerpt: (§1) Methods. Animals: All animals were kept on a standard 12:12 light/dark cycle in micro-isolator caging racks (Allentown Caging) with food and water provided ad libitum. Mouse strains obtained from Jackson Laboratories include C57Bl/6J (JAX #000664), Calr^Cre (JAX #010774) and CCK^Cre (JAX #012706). Adeno-associated viruses (AAV2/8) used in these experiments: hSyn-Flex-rev-PSAM^L141F-GlyR-IRES-eGFP (7^12 vg/ml) and hSyn-Flex-rev-PSAM^L141F,Y115F-GlyR-IRES-eGFP (1.7^13 vg/ml) were custom made by UNC Vector core based on plasmid material developed by Scott Sternson and provided by Addgene. The hSyn-Flex-rev-PSAM^L141F-GlyR-IRES-eGFP (7^12 vg/ml) was used in all experiments except FIG. 8 (e,f). For these experiments, hSyn-Flex-rev-PSAM^L141F,Y115F-GlyR-IRES-eGFP (1.7^13 vg/ml) was used. Methods including: intra-spinal virus injections, paw withdrawal threshold to von Frey filaments, to cotton swab, Hargreaves, pinprick and acute pain behaviors licking, guarding, flicking are all as previously described (Peirs, C. et al. Dorsal Horn Circuits for Persistent Mechanical Pain. Neuron 87, 797-812 (2015); Seal, R. P. et al. Injury-induced mechanical hypersensitivity requires C-low threshold mechanoreceptors. Nature 462, 651-655, (2009)); For paw withdrawal threshold to pressure: mice were lightly restrained by hand such that their rear legs were allowed to freely hang. Using a Pressure Application Measurement device (Ugo Basile) the hind paw was grasped between the experimenter's forefinger and thumb (with pressure transducer on the thumb), and force was slowly applied to the paw until the mouse struggled or flicked its limb (paw withdrawal threshold, PWT). The final force in grams was recorded. Each mouse was tested on the left and right paw for three trials with a ten-minute inter-trial interval between applications, and the three results averaged for each paw. Injury Models including incision, complete Freund's adjuvant, spared nerve injury tibial and sural models, carrageenan, methylglyoxal and multi-dose streptozotocin are as previously described (Peirs, C. et al. Dorsal Horn Circuits for Persistent Mechanical Pain. Neuron 87, 797-812 (2015); Seal, R. P. et al. Injury-induced mechanical hypersensitivity requires C-low threshold mechanoreceptors. Nature 462, 651-655, (2009); Decosterd, I. and Woolf, C. J. Spared nerve injury: an animal model of persistent peripheral neuropathic pain. Pain 87, 149-158 (2000); Bierhaus, A. et al. Methylglyoxal modification of Nav1.8 facilitates nociceptive neuron firing and causes hyperalgesia in diabetic neuropathy. Nat Med 18, 926-933 (2012); Cavanaugh, D. J. et al. Distinct subsets of unmyelinated primary sensory fibers mediate behavioral responses to noxious thermal and mechanical stimuli. Proc Natl Acad Sci USA 106, 9075-9080, (2009)). Chemogenetic Activation of PSAM-GlyR Receptor: Behavior thresholds were performed as described above in AAV8-hSyn-DIO-PSAM-GlyR-IRES-GFP injected mice. PSEM^89S at 30 mg/kg was injected intraperitoneally 15 minutes prior to testing. Immunohistochemistry was performed as previously described (Peirs, C. et al. Dorsal Horn Circuits for Persistent Mechanical Pain. Neuron 87, 797-812 (2015); Seal, R. P. et al. Injury-induced mechanical hypersensitivity requires C-low threshold mechanoreceptors. Nature 462, 651-655 (2009)). α-bungarotoxin conjugated to Alexa-647 (1:1000; ThermoFisher B35450), α-bungarotoxin conjugated to Alexa-488 (1:1000; ThermoFisher B13422). Imaging: Spinal cord sections were imaged with a confocal laser-scanning microscope (Nikon A1R) and Nikon Elements software using 405-, 488-, 561- and 640 nm excitation laser light. In order to suppress emission crosstalk, the microscope was configured to perform all scanning in sequential mode. Z-series were scanned at 20× magnification with an oil immersion lens and a z-step of 5.0 μm. Quantification and Statistical Analysis: all data are reported as mean±SEM. For acute behaviors, a two-tailed Student's t-test was used. […]

[2] = target: T2, PSAM-GlyR in CCK^+ dorsal horn neurons (Homo sapiens, UniProt P23415+P36544, L141F/Y115F); assay: as above; format: in vivo, mouse; conditions: PSAM^L141F,Y115F-GlyR virus, CCK^+ neurons
T2 construct: plasmid from Addgene (Sternson); host or cells: mouse dorsal horn neurons transduced with Cre-dependent AAV2/8 (Tlx3^Cre, CCK^Cre or Calr^Cre mice)
Excerpt: as §1

T1 sequence (P36544+P23415 fused P36544:L141F): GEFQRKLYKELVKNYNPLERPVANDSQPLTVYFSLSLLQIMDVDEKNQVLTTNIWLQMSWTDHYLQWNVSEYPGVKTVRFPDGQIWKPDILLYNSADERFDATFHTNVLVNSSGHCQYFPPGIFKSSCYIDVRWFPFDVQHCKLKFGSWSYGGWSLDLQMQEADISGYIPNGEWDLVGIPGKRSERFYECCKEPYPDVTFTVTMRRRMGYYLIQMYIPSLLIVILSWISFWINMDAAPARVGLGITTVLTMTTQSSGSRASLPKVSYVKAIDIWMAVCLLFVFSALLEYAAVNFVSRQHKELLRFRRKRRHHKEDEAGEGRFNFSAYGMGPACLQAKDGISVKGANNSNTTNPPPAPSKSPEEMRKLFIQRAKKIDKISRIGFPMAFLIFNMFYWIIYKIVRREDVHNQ
T2 sequence (P36544+P23415 fused P36544:Y115F/P36544:L141F): as the sequence (P36544+P23415 fused P36544:L141F) above, with Y93F counted along it

In the case of `COc1ccc(OC)c(C(=O)NC2CN3CCC2CC3)c1` (centres unmarked) [PSEM^89S], the “dynamic allodynia, carrageenan pain model” value ([1]; p=0.0001) is reported as “significantly reversed”, the “dynamic allodynia, sural-SNI model” value ([1]; p=0.0001) is reported as “significantly reversed” and the “heat hypersensitivity, carrageenan pain model” value ([1]; p=0.0002) is reported as “significantly reversed”. For the same compound, the “punctate allodynia, sural-SNI model” value ([1]; p=0.0003) was “significantly reversed”, the “dynamic allodynia, CFA model” value ([1]; p=0.0016) was “markedly reversed; also recorded: significantly reversed” and the “punctate allodynia, carrageenan pain model” value ([1]; p=0.0017) was “significantly reversed”. For the same compound, the “punctate allodynia, CFA model” value ([1]; p=0.0034) was “markedly reversed; also recorded: significantly reversed”, the “punctate allodynia, tibial-SNI model” value ([1]; p=0.0054) was “markedly reversed” and the “heat hypersensitivity, CFA model” value ([1]; p=0.0368) was “markedly reversed; also recorded: significantly reversed”. The “heat hypersensitivity induced by multi-dose STZ” value ([2]; p=0.010) was “reversed” and the “heat hypersensitivity induced by MG (methylglyoxal)” value ([2]; p=0.0272) was “reversed”.
